Test results as given in patent publication US9169241B2, “Quinolinyloxyphenylsulfonamides” (Max-Planck-Gesellschaft Zur Forderung der Wissenschaften …, priority 2009, dated 2015).
pIC50: −log10 of the molar value.

What was measured:
[1] = target: T1, wild type AXL (wtAXL) receptor tyrosine kinase (Homo sapiens, UniProt P30530); assay: NIH-3T3-AXL cellular kinase assay (pY-AXL-ELISA); format: cell-based; settings: NIH-3T3-AXL (clone 22) cells, serum depleted, compounds 1 h; Table Ia
T1 construct: WtAXL cDNA was cloned into vector pLXSN(ESK) and transfected into Phoenix E packaging cells; expressed in transfected cells; host or cells: NIH3T3 N7 (mouse fibroblasts), retrovirally infected, clone 22
T1 sequence (P30530 26-894): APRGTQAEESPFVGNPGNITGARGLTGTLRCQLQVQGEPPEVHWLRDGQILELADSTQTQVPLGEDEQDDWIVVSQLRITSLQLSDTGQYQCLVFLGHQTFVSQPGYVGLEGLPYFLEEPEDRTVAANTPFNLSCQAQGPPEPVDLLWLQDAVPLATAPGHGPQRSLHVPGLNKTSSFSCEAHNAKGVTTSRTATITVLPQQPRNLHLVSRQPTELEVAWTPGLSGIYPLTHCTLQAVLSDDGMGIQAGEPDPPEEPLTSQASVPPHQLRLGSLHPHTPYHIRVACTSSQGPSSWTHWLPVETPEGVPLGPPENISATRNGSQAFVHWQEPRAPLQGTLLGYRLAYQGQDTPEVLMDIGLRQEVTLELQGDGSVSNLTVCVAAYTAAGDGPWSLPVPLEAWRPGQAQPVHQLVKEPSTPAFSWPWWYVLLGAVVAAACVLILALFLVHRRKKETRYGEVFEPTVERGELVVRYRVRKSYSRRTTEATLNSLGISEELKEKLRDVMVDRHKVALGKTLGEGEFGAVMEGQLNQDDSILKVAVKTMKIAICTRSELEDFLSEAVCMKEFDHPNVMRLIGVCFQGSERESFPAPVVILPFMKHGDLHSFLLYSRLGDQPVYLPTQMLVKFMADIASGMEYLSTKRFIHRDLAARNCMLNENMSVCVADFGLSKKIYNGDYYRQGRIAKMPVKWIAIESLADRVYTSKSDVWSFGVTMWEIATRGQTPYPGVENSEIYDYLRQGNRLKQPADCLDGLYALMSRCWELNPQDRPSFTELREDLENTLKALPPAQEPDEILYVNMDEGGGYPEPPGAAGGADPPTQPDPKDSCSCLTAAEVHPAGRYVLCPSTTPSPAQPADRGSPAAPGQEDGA
Procedure, shortened: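 NIH3T3 cells stably expressing human wild-type AXL (retroviral, puromycin-selected clones) were treated with serial compound dilutions for 1 h and lysed. AXL tyrosine phosphorylation was measured by ELISA on the lysates: biotinylated 4G10 anti-phosphotyrosine, streptavidin-alkaline phosphatase, AttoPhos fluorescence at 430/560 nm after 90 min.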

Hs578T [2] = assay: Cell vitality assay (ATP assay, CellTiter-Glo); format: cell-based; settings: Homo sapiens, Hs-578T; HS578T cell line, 72 h; Table Ib; read-out: IC50 ATP-Assay HS578T after 72 h
Procedure, shortened: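 1000 cells/well were exposed to compound at 12.5 μM down to 0.195 μM (twofold steps) or DMSO for 72 h. ATP was then measured by luminescence after 10 min reagent lysis at room temperature. IC50 was taken as the concentration giving 50% of the DMSO-control ATP level.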

Hs578T [3] = assay: Wound healing migration assay; format: cell-based; settings: Homo sapiens, Hs-578T; HS578T cell line; Table Ib
Procedure, shortened: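 Cells seeded at 150000/24 well, grown to monolayer overnight, scratched with a pipette tip, then treated with compound at 12.5, 6.25 or 3.125 μM versus DMSO. Stopped by crystal violet fixation at 48-72 h once control wounds closed; IC50 taken as 50% wound size between t0 and t48 or t72.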

Hs578T [4] = assay: Matrigel outgrowth assay/branching assay; format: cell-based; settings: Homo sapiens, Hs-578T; HS578T cell line; Table Ib; read-out: Total branching inhibition in Matrigel HS578T
Procedure, shortened: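 Read-out: microscopic images of invasive branching structures at 48 h, 72 h and 96 h. Cells sat on a 3 mg/ml Matrigel layer (set 1 h, 37° C) with compound at 3.125, 1.56 and 0.78 μM or DMSO. A concentration counts as positive only with complete branching inhibition.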

| SMILES | pIC50 [1] | pIC50 (Hs578T [2]) | pIC50 (Hs578T [3]) | pIC50 (Hs578T [4]) | melting point [°C] |
| --- | --- | --- | --- | --- | --- |
| COc1cc2c(Oc3ccc(NS(=O)(=O)c4c(Cl)csc4Cl)cc3F)ccnc2cc1OCCCN1CCCCC1C (centres unmarked) [Example 146, 2,4-Dichloro-thiophene-3-sulfonic acid (3-fluoro-4-{6-methoxy-7-[3-(2-methyl-piperidin-1-yl)-propoxy]-quinolin-4-yloxy}-phenyl)-amide] | > 6.30 | ≥ 4.90 | ≥ 4.90 | 4.60 to 5.00 | 131 to 132 |
| COc1cc2c(Oc3ccc(NS(=O)(=O)c4csc5ccccc45)cc3F)ccnc2cc1OCCCN1CCCCC1C (centres unmarked) [Example 147, Benzo[b]thiophene-3-sulfonic acid (3-fluoro-4-{6-methoxy-7-[3-(2-methyl-piperidin-1-yl)-propoxy]-quinolin-4-yloxy}-phenyl)-amide] | 5.52 to 6.30 | ≥ 4.90 | ≥ 4.90 | ≥ 5.00 | 120 to 122 |
| COc1cc2c(Oc3ccc(NS(=O)(=O)c4ccco4)cc3F)ccnc2cc1OCCCN1CCCCC1C (centres unmarked) [Example 148, Furan-2-sulfonic acid (3-fluoro-4-{6-methoxy-7-[3-(2-methyl-piperidin-1-yl)-propoxy]-quinolin-4-yloxy}-phenyl)-amide] | 5.52 to 6.30 | ≥ 4.90 | 4.30 to 4.90 | 4.60 to 5.00 | 118 to 119 |
| COc1cc2c(Oc3ccc(NS(=O)(=O)c4c(F)cccc4F)cc3F)ccnc2cc1OCCCN1CCCCC1C (centres unmarked) [Example 152, 2,6-Difluoro-N-(3-fluoro-4-{6-methoxy-7-[3-(2-methyl-piperidin-1-yl)-propoxy]-quinolin-4-yloxy}-phenyl)-benzenesulfonamide] | > 6.30 | ≥ 4.90 | ≥ 4.90 | ≥ 5.00 | 132 to 134 |
| COc1cc2c(Oc3ccc(NS(=O)(=O)c4ccccc4OC(F)(F)F)cc3F)ccnc2cc1OCCCN1CCCCC1C (centres unmarked) [Example 153, N-(3-Fluoro-4-{6-methoxy-7-[3-(2-methyl-piperidin-1-yl)-propoxy]-quinolin-4-yloxy}-phenyl)-2-trifluoromethoxy-benzenesulfonamide] | > 6.30 | ≥ 4.90 | ≥ 4.90 | 4.60 to 5.00 | 90 to 92 |
| COc1cc2c(Oc3ccc(NS(=O)(=O)c4cc(Cl)ccc4Cl)cc3F)ccnc2cc1OCCCN1CCCCC1C (centres unmarked) [Example 154, 2,5-Dichloro-N-(3-fluoro-4-{6-methoxy-7-[3-(2-methyl-piperidin-1-yl)-propoxy]-quinolin-4-yloxy}-phenyl)-benzenesulfonamide] | > 6.30 | ≥ 4.90 | ≥ 4.90 | 4.60 to 5.00 | 128 to 130 |
| COc1cc2c(Oc3ccc(NS(=O)(=O)c4cc(F)ccc4F)cc3C)ccnc2cc1OCCCN1CCC(C)CC1 [Example 171, 2,5-Difluoro-N-(4-{6-methoxy-7-[3-(4-methyl-piperidin-1-yl)-propoxy]-quinolin-4-yloxy}-3-methyl-phenyl)-benzenesulfonamide] | 5.52 to 6.30 | 4.30 to 4.90 | 4.30 to 4.90 | 4.60 to 5.00 | 222 to 223 |
| COc1cc2c(Oc3ccc(NS(=O)(=O)c4c(F)cccc4F)cc3C)ccnc2cc1OCCCN1CCC(C)CC1 [Example 172, 2,6-Difluoro-N-(4-{6-methoxy-7-[3-(4-methyl-piperidin-1-yl)-propoxy]-quinolin-4-yloxy}-3-methyl-phenyl)-benzenesulfonamide] | 5.52 to 6.30 | ≥ 4.90 | ≥ 4.90 | ≥ 5.00 | 191 to 193 |
| COc1cc2c(Oc3ccc(NS(=O)(=O)c4c(F)cccc4F)cc3OC)ccnc2cc1OCCCN1CCC(C)CC1 [Example 173, 2,6-Difluoro-N-(3-methoxy-4-{6-methoxy-7-[3-(4-methyl-piperidin-1-yl)-propoxy]-quinolin-4-yloxy}-phenyl)-benzenesulfonamide] | 5.52 to 6.30 | ≥ 4.90 | 4.30 to 4.90 | 4.60 to 5.00 | 98 to 101 |
| COc1cc2c(Oc3ccc(NS(=O)(=O)c4ccccc4OC(F)(F)F)cc3C)ccnc2cc1OCCCN1CCC(C)CC1 [Example 174, N-(4-{6-Methoxy-7-[3-(4-methyl-piperidin-1-yl)-propoxy]-quinolin-4-yloxy}-3-methyl-phenyl)-2-trifluoromethoxy-benzenesulfonamide] | 5.52 to 6.30 | ≥ 4.90 | ≥ 4.90 | ≥ 5.00 | 168 to 169 |
| COc1cc2c(Oc3ccc(NS(=O)(=O)c4cc(Cl)ccc4Cl)cc3C)ccnc2cc1OCCCN1CCC(C)CC1 [Example 175, 2,5-Dichloro-N-(4-{6-methoxy-7-[3-(4-methyl-piperidin-1-yl)-propoxy]-quinolin-4-yloxy}-3-methyl-phenyl)-benzenesulfonamide] | 5.52 to 6.30 | ≥ 4.90 | ≥ 4.90 | ≥ 5.00 | 187 to 188 |
| COc1cc2c(Oc3ccc(NS(=O)(=O)c4c(Cl)cccc4Cl)cc3C)ccnc2cc1OCCCN1CCC(C)CC1 [Example 176, 2,6-Dichloro-N-(4-{6-methoxy-7-[3-(4-methyl-piperidin-1-yl)-propoxy]-quinolin-4-yloxy}-3-methyl-phenyl)-benzenesulfonamide] | 5.52 to 6.30 | ≥ 4.90 | ≥ 4.90 | ≥ 5.00 | 209 to 210 |
| COc1cc2c(Oc3ccc(NS(=O)(=O)c4cc(Cl)ccc4Cl)cc3F)ccnc2cc1OCCCN(C)C [Example 180, 2,5-Dichloro-N-{4-[7-(3-dimethylamino-propoxy)-6-methoxy-quinolin-4-yloxy]-3-fluoro-phenyl}-benzenesulfonamide] | > 6.30 | ≥ 4.90 | ≥ 4.90 | ≥ 5.00 | 150 to 152 |
| COc1cc2c(Oc3ccc(NS(=O)(=O)c4ccc(Cl)s4)cc3F)ccnc2cc1OCCCN(C)C [Example 182, 5-Chloro-thiophene-2-sulfonic acid {4-[7-(3-dimethylamino-propoxy)-6-methoxy-quinolin-4-yloxy]-3-fluoro-phenyl}-amide] | > 6.30 | ≥ 4.90 | ≥ 4.90 | 4.60 to 5.00 | 130 to 132 |
| COc1cc2c(Oc3ccc(NS(=O)(=O)c4ccco4)cc3F)ccnc2cc1OCCCN(C)C [Example 185, Furan-2-sulfonic acid {4-[7-(3-dimethylamino-propoxy)-6-methoxy-quinolin-4-yloxy]-3-fluoro-phenyl}-amide] | 5.52 to 6.30 | ≥ 4.90 | 4.30 to 4.90 | 4.60 to 5.00 | 185 to 187 |
| COc1cc2c(Oc3ccc(NS(=O)(=O)c4cccs4)cc3F)ccnc2cc1OCCCN(C)C [Example 186, Thiophene-2-sulfonic acid {4-[7-(3-dimethylamino-propoxy)-6-methoxy-quinolin-4-yloxy]-3-fluoro-phenyl}-amide] | > 6.30 | ≥ 4.90 | ≥ 4.90 | 4.60 to 5.00 | 186 to 188 |
